Non-standard residues stand in square brackets, D forms with d. No end group written: not given here. Oic = O=C(O)[C@@H]1C[C@@H]2CCCC[C@@H]2N1; dTic = O=C(O)[C@H]1Cc2ccccc2CN1
Test system: bradykinin response of isolated guinea pig ileum
Experiment: Anti-bradykinin activity on isolated guinea pig ileum
Conditions: for GPI: pA2 for bradykinin antagonist activity on isolated guinea pig ileum: higher numbers indicate higher potency
Experimental: In general, Anti-bradykinin activity was determined by the classical guinea pig ileum assay and on Chinese hamster ovary (CHO) cells expressing cloned human bradykinin B2 receptors. Anti-tumor activity was determined on cultured human cancer cell lines using the standard tetrazolium (MTT) assay.
Male Hartley guinea pigs that had been deprived of food overnight were sacrificed, and sections of terminal ileum, 25 mm in length, were dissected, attached to tissue holders and immersed in 10 ml tissue baths containing Krebs' solution bubbled with 95% O2/5% CO2. Tissues were placed under 1 g tension and incubated for 1 h equilibration. Concentration-effect curves were constructed to bradykinin in the absence and presence of new compounds.

[1] = isolated guinea pig ileum, pD2 of bradykinin is 7.4

Compound	GPI: pA2 for bradykinin antagonist activity on isolated guinea pig ileum [1]	GPI: pA2 for bradykinin antagonist activity on isolated guinea pig ileum (Table 1)	further results
CN1CCN(NC(=O)[C@H](Cc2ccc3ccccc3c2)NC(=O)C=Cc2ccc(NC(=O)CCCCCCCCCCC(=O)Nc3ccc(C=CC(=O)N[C@@H](Cc4ccc5ccccc5c4)C(=O)NN4CCN(C)CC4)cc3)cc2)CC1 [M480-2]	5.6		
DDD-(Eac-Arg-Digl-Oic-Arg)2 [B10198-1]		5.7	
N=C(N)NCCCCCC(=O)NC(Cc1ccc2ccccc2c1)C(=O)NC(Cc1ccc(NC(=N)N)cc1)C(=O)O (stereo not drawn) [M8]	Inact		
DArg-Arg-Pro-Hyp-Gly-Phe-Ser-DCpG-CpG-Arg [B8840]		6.8	
Dhq-DArg-Arg-Pro-Hyp-Gly-CpG-Ser-DCpG-CpG-Arg [B9074]		6.3	
CC1(C)CC(NC(=O)C(CC(=O)O)NC(=O)C(Cc2ccc3ccccc3c2)NC(=NC2CCCCC2)NC2CCCCC2)CC(C)(C)N1 (stereo not drawn) [M342]	5.4		
F5c-Tic-Arg [M382]		4.7	
ε-SUB-(Lys-DArg-Arg-Eac-Ser-DF5F-Nc7G-Arg)2 [M1038]		6.4	
O=C(O)Cc1ccc(NC(=O)C(Cc2ccc3ccccc3c2)NC(=NC2CCCCC2)NC2CCCCC2)cc1 (stereo not drawn) [M30]	5.4		
Gun-2-Nal-Arg [M20]		4.6	
Dcg-Pac-Gly-m-ABz-2-Nal-Arg [M200-2]		4.9	
Nc1cc(NC(=O)C(Cc2ccc3ccccc3c2)NC(=NC2CCCCC2)NC2CCCCC2)cc(C(=O)O)c1 (stereo not drawn) [M92-1]	5.0		
O=C(C=Cc1ccc(NC(=NC2CCCCC2)NC2CCCCC2)cc1)NCC(=O)Nc1cccc(C(=O)NC(Cc2ccc3ccccc3c2)C(=O)O)c1 (stereo not drawn) [M340]	4.8		
COc1cc(C=CC(=O)NC(Cc2c(F)c(F)c(F)c(F)c2F)C(=O)NC(Cc2cccnc2)C(=O)O)cc(OC)c1O (stereo not drawn) [M136]	Inact		
F5c-DArg-Arg-Aud-DTic-hPhe-Arg [M766]		5.1	
N=C(N)Nc1cc(NC(=O)C(Cc2ccc3ccccc3c2)NC(=NC2CCCCC2)NC2CCCCC2)cc(C(=O)O)c1 (stereo not drawn) [M92-2]	4.8		
DArg-Arg-NMF-Hyp-Gly-Thi-Ser-DIgl-Oic-Arg [B9966]		6.9	
Dcg-Ac6c-Arg [M86]		5.0	
N=C(N)NCCCC(NC(=O)C=Cc1ccc(C(F)(F)F)cc1)C(=O)O (stereo not drawn) [M374, Tfmc-Arg]		4.6	
F5c-Ana-Arg [M392]		4.5	
DArg-Arg-Pro-Hyp-Gly-Igl-Ser-DIgl-Nc7G-Arg [B10010]		7.7	
O=C(O)CC(NC(=O)C(Cc1ccc2ccccc2c1)NC(=NC1CCCCC1)NC1CCCCC1)C(=O)NC1CN2CCC1CC2 (single isomer, unassigned) [M336-2]	5.4		
DArg-Arg-Nig-Hyp-Gly-Igl-Ser-DIgl-Oic-Arg [B9960]		7.7	
O=C(O)Cc1ccc(NC(=O)C(Cc2ccc3ccccc3c2)NC(=NC2CCCCC2)NC2CCCCC2)cc1 (stereo not drawn) [M36]	5.0		
F5c-Dpr(Paa)-Arg [M690]		4.8	

Compound	GPI: pA2 for bradykinin antagonist activity on isolated guinea pig ileum [1]	GPI: pA2 for bradykinin antagonist activity on isolated guinea pig ileum (Table 1)	further results
Mcg-Pac-Gly-m-ABz-2-Nal-Arg [M200-1]		Inact	
N=C(Nc1ccc(CC(=O)Nc2cccc(C(=O)O)c2)cc1)NC1CCCCC1 [M122-1]	5.0		
O=C(O)c1cccc(NC(=O)C(Cc2ccc3ccccc3c2)NC(=NC2CCCCC2)NC2CCCCC2)c1 (stereo not drawn) [M76]	4.9		
O=C(O)CC(NC(=O)C(Cc1ccc2ccccc2c1)NC(=NC1CCCCC1)NC1CCCCC1)C(=O)O (stereo not drawn) [M162]	4.9		
Ac-PaF(Mcg)-Arg [M118-1]		4.9	
O=C(O)c1ccc(NC(=O)C(Cc2ccc3ccccc3c2)NC(=NC2CCCCC2)NC2CCCCC2)cc1 (stereo not drawn) [M120]	4.7		
F5c-p-Amb-Arg [M348]		4.7	
Aaa-DArg-Arg-Pro-Hyp-Gly-(D,L)DMF-Ser-DTic-Oic-Arg [B9126]		6.4	
CC(=O)Nc1ccc(C=CC(=O)NCC(=O)Nc2cccc(C(=O)NC(Cc3ccc4ccccc4c3)C(=O)O)c2)cc1 (stereo not drawn) [M204]	5.0		
O=C(O)c1cccc(NC(=O)C(Cc2ccc3ccccc3c2)NC(=NC2CCCCC2)NC2CCCCC2)c1 (stereo not drawn) [M112]	5.1		
DArg-Arg-Pro-Hyp-Gly-Thi-Ser-DTic-Nc6G-Arg [B10014]		7.6	
N=C(N)NCCCC(NC(=O)C=Cc1c(F)c(F)c(F)c(F)c1F)C(=O)O (stereo not drawn) [M370, F5c-Arg]		4.8	
Ac-PaF(Dcg)-p-ABz-Arg [M146-2]		4.9	
N=C(N)NC(Cc1ccc2ccccc2c1)C(=O)Nc1ccc(CC(=O)O)cc1 (stereo not drawn) [M32]	4.8		
CC1(C)CC(NC(=O)[C@@H](NC(=NC2CCCCC2)NC2CCCCC2)C2Cc3ccccc3C2)CC(C)(C)N1Cc1ccccc1 [M258]	5.0		
RPPGFSPFR [BK, reference compound]			pD2 of bradykinin on ileum (guinea pig ileum): 7.4
RPPGFT[dTic][Oic]-NH2 [B10284]		7.7	
F5c-PNF-Arg [M732]		4.9	
F5c-Lys{(CH3)3}-Arg [M388]		4.9	
Aaa-DIgl-hPhe-Arg [M772]		4.9	
F5c-m-APa-Arg [M412]		5.8	
Dcg-BtA-Arg [M68]		4.9	
O=C(Cc1ccc(NC(=NC2CCCCC2)NC2CCCCC2)cc1)Nc1cccc(C(=O)O)c1 [M122-2]	4.6		
DArg-Arg-Pro-Hyp-Gly-CpG-Ser-DCpG-CpG-Arg [B8838]		7.0	
Ac-PaF(Mcg)-p-ABz-Arg [M146-1]		Inact	

Compound	GPI: pA2 for bradykinin antagonist activity on isolated guinea pig ileum [1]	GPI: pA2 for bradykinin antagonist activity on isolated guinea pig ileum (Table 1)	further results
DDD-(DArg-hPhe-Arg)2 [M554]		5.1	
Dcg-Trx-Arg [M134]		4.9	
Dcg-Gly-Cmp-Arg [M124]		4.7	
O=C(NC(CNC(=O)C(Cc1ccc2ccccc2c1)NC(=NC1CCCCC1)NC1CCCCC1)C(=O)O)C1CCNCC1 (stereo not drawn) [M172]	4.9		
Dcg-p-Amb-Arg [M346]		4.6	
O=C(O)c1cc(NC(=O)C(Cc2ccc3ccccc3c2)NC(=NC2CCCCC2)NC2CCCCC2)cc(NC(=NC2CCCCC2)NC2CCCCC2)c1 (stereo not drawn) [M92-4]	5.0		
O=C(NC(Cc1ccc(NC(=NC2CCCCC2)NC2CCCCC2)cc1)C(=O)O)c1ccc2ccccc2c1 (stereo not drawn) [M168-2]	4.7		
F5c-Phe-Arg [M410]		5.4	
F5c-Tyr-Arg [M380]		Inact	
F5c-p-ABz-Arg [M148]		5.1	
O=C(C=Cc1c(F)c(F)c(F)c(F)c1F)NCC(=O)Nc1cccc(C(=O)N[C@@H](Cc2ccc3ccccc3c2)C(=O)O)c1 [M202]	5.1		
F5c-DhPhe-Arg [M730]		4.7	
O=C(C[C@H](NC(=O)[C@H](Cc1ccc2ccccc2c1)NC(=NC1CCCCC1)NC1CCCCC1)C(=O)O)NC1CN2CCC1CC2 (stereo partly drawn) [M188B]	5.5		
F5c-p-Amb-APa-Arg [M352]		4.7	
O=C(O)Cc1ccc(NC(=O)C(NC(=NC2CCCCC2)NC2CCCCC2)C2Cc3ccccc3C2)cc1 (stereo not drawn) [M72-1]	4.7		
Dcg-Atpc-Arg [M232-1]		4.7	
Dcg-2-Nal-Atpc-Arg [M232-3]		5.1	
Dcg-Igl-Arg [M70]		4.8	
Aaa-DArg-Arg-Pro-Hyp-Gly-(D,L)DMF-Ser-DTic-Oic-Arg [B9126-2]		7.3	
CC1(C)CC(NC(=O)C(CC(=O)O)NC(=O)Cc2ccc(NC(=NC3CCCCC3)NC3CCCCC3)cc2)CC(C)(C)N1 (stereo not drawn) [M362]	4.9		
RPPGFT[dTic][Oic]R [B10282]		7.3	
O=C(C=Cc1c(F)c(F)c(F)c(F)c1F)Nc1ccc(C(=O)N[C@@H](Cc2ccc3ccccc3c2)C(=O)O)cc1 [M180]	5.1		
Gun-Ica-Arg [M88]		4.7	
Dcg-Apa-Arg [M78]		5.6	
O=C(O)CC(NC(=O)C(Cc1ccc2ccccc2c1)NC(=NC1CCCCC1)NC1CCCCC1)C(=O)NC1CN2CCC1CC2 (single isomer, unassigned) [M336-1]	5.1		
